Measured values taken from DBAASP.
Converted amounts (≈) assume the structure as drawn. “And” between values parts separate entries of the source, which are not always exact repeats. Equal values may be shown once.

Assays:
Assay in all cases: ≥ marks a high value that may be exact or a test limit, other limits are often not marked, values filed in µg/mL are converted to µM
[1] = test system: Pseudomonas aeruginosa ATCC 27853
[2] = test system: Klebsiella pneumoniae ATCC 700603
[3] = test system: Staphylococcus aureus ATCC 700699
[4] = test system: Staphylococcus aureus ATCC 33591
[5] = test system: Staphylococcus aureus ATCC 29213
[6] = test system: Escherichia coli ATCC 25922
Streptococcus pyogenes = test system: Streptococcus pyogenes
Proteus vulgaris = test system: Proteus vulgaris
Bacillus subtilis = test system: Bacillus subtilis
Salmonella typhimurium = test system: Salmonella typhimurium
Escherichia coli = test system: Escherichia coli
Pseudomonas aeruginosa = test system: Pseudomonas aeruginosa
[7] = test system: Staphylococcus epidermidis
[8] = test system: Staphylococcus aureus ATCC BAA-1556
Enterococcus faecium = test system: Enterococcus faecium
Acinetobacter baumannii = test system: Acinetobacter baumannii
Klebsiella pneumoniae = test system: Klebsiella pneumoniae
Streptococcus pneumoniae = test system: Streptococcus pneumoniae
[9] = test system: Staphylococcus aureus ATCC 43300
[10] = test system: Staphylococcus aureus SAP 0017
[11] = test system: Klebsiella aerogenes ATCC 13048
[12] = test system: Bacillus cereus ATCC 11778
[13] = test system: Salmonella enterica subsp. enterica serovar Typhimurium ATCC 14028

SMILES: CC[C@H](C)[C@H](NC(=O)[C@H](CC(=O)O)NC(=O)[C@H](C)NC(=O)[C@H](C)NC(=O)[C@H](C)NC(=O)CNC(=O)[C@H](CCCCN)NC(=O)[C@H](CC(C)C)NC(=O)[C@@H](NC(=O)[C@H](CC(=O)O)NC(=O)[C@@H](NC(=O)[C@@H](NC(=O)CN)C(C)C)C(C)C)[C@@H](C)CC)C(=O)N[C@@H](C)C(=O)NCC(=O)N[C@@H](Cc1cnc[nH]1)C(=O)N[C@@H](CC(C)C)C(=O)N[C@@H](C)C(=O)N[C@@H](CO)C(=O)N[C@@H](CCCCN)C(=O)N[C@H](C(=O)N[C@@H](CCSC)C(=O)N[C@@H](CC(N)=O)C(=O)N[C@@H](CCCCN)C(=O)N[C@@H](CC(C)C)C(N)=O)C(C)C [GVVDILKGAAADIAGHLASKVMNKL]
- MIC [1]: > 100 µM
- MIC [2]: > 100 µM
- MIC [3]: ≥ 100 µM
- MIC [4]: ≥ 100 µM
- MIC [5]: > 100 µM
- MIC [6]: 100 µM (≈ 249 µg/mL)

SMILES: CC(C)C[C@H](NC(=O)[C@H](CCCN=C(N)N)NC(=O)[C@@H]1CCCN1C(=O)[C@H](Cc1cnc[nH]1)NC(=O)[C@@H]1CCCN1C(=O)[C@@H]1CCCN1C(=O)[C@H](CCCN=C(N)N)NC(=O)[C@@H]1CCCN1C(=O)[C@@H]1CCCN1C(=O)[C@H](Cc1cnc[nH]1)NC(=O)[C@@H]1CCCN1C(=O)[C@@H]1CCCN1C(=O)[C@H](CCCN=C(N)N)NC(=O)[C@@H]1CCCN1)C(=O)O [PRPPHPPRPPHPRL]
- MIC (Streptococcus pyogenes): ≥ 64 µM
- MIC (Proteus vulgaris): ≥ 64 µM
- MIC (Bacillus subtilis): ≥ 64 µM
- MIC (Salmonella typhimurium): 0.5 µM (≈ 0.825 µg/mL)
- MIC (Escherichia coli): 8 µM (≈ 13.2 µg/mL)
- MIC (Pseudomonas aeruginosa): 64 µM (≈ 106 µg/mL)
- MIC [7]: ≥ 64 µM

SMILES: CC(C)C[C@H](NC(=O)[C@H](CC(C)C)NC(=O)[C@H](CC(C)C)NC(=O)[C@H](CCCCN)NC(=O)[C@H](CC(C)C)NC(=O)[C@@H](N)CC(C)C)C(=O)N[C@@H](CCCCN)C(N)=O [LLKLLLK]
- MIC [8]: ≥ 100 µM

SMILES: CC[C@H](C)[C@H](NC(=O)[C@H](Cc1c[nH]c2ccccc12)NC(=O)[C@H](CCCN=C(N)N)NC(=O)[C@@H](N)CCCN=C(N)N)C(=O)N[C@@H](CCCN=C(N)N)C(=O)N[C@@H](Cc1c[nH]c2ccccc12)C(=O)N[C@@H](CC(C)C)C(N)=O [RRWIRWL]
- MIC [8]: ≥ 100 µM

SMILES: CC[C@H](C)[C@H](NC(=O)CNC(=O)[C@H](Cc1cnc[nH]1)NC(=O)CNC(=O)CN)C(=O)N[C@@H](CCCN=C(N)N)C(=O)N[C@@H](CCCN=C(N)N)C(=O)N[C@H](C(=O)N[C@H](C(=O)N[C@@H](CCCN=C(N)N)C(=O)N[C@@H](CCCCN)C(=O)N[C@H](C(=O)N[C@H](C(=O)N[C@@H](Cc1cnc[nH]1)C(=O)N[C@H](C(=O)N[C@H](C(=O)N[C@@H](CCCCN)C(=O)N[C@@H](CCCCN)C(=O)NCC(=O)NCC(=O)N[C@@H](CS)C(N)=O)[C@@H](C)CC)[C@@H](C)CC)[C@@H](C)CC)[C@@H](C)CC)[C@@H](C)CC)[C@@H](C)CC [GGHGIRRIIRKIIHIIKKGGC]
- MIC (Enterococcus faecium): 8 µM (≈ 18.6 µg/mL)
- MIC (Acinetobacter baumannii): 9.3 µM (≈ 21.6 µg/mL)
- MIC (Klebsiella pneumoniae): > 16 µM
- MIC (Streptococcus pneumoniae): 8 µM (≈ 18.6 µg/mL)
- MIC (Pseudomonas aeruginosa): 12 µM (≈ 27.9 µg/mL)
- MIC [6]: 3 µM (≈ 6.97 µg/mL)
- MIC [9]: 4 µM (≈ 9.3 µg/mL)

SMILES: CC(C)C[C@H](NC(=O)[C@H](CC(C)C)NC(=O)[C@H](CC(C)C)NC(=O)[C@H](CCCCN)NC(=O)[C@H](CC(C)C)NC(=O)[C@H](CCCCN)NC(=O)[C@H](CC(C)C)NC(=O)[C@H](CC(C)C)NC(=O)[C@@H](N)CC(C)C)C(N)=O [LLLKLKLLL]
- MIC [8]: ≥ 100 µM

SMILES: CC[C@H](C)[C@H](NC(=O)[C@H](CC(=O)O)NC(=O)[C@@H](NC(=O)[C@@H](NC(=O)CN)C(C)C)C(C)C)C(=O)N[C@@H](CC(C)C)C(=O)N[C@@H](CCCCN)C(=O)NCC(=O)N[C@@H](C)C(=O)N[C@@H](C)C(=O)N[C@@H](CCCCN)C(=O)N[C@@H](CC(=O)O)C(=O)N[C@@H](C)C(=O)N[C@@H](C)C(=O)NCC(=O)N[C@@H](Cc1cnc[nH]1)C(=O)N[C@@H](CC(C)C)C(=O)N[C@@H](C)C(=O)N[C@@H](CO)C(=O)N[C@@H](CCCCN)C(=O)N[C@H](C(=O)N[C@@H](CCSC)C(=O)N[C@@H](CC(N)=O)C(=O)N[C@@H](CCCCN)C(=O)N[C@@H](CC(C)C)C(N)=O)C(C)C [GVVDILKGAAKDAAGHLASKVMNKL]
- MIC [1]: > 100 µM
- MIC [2]: > 100 µM
- MIC [3]: ≥ 100 µM
- MIC [4]: ≥ 100 µM
- MIC [5]: > 100 µM
- MIC [6]: > 100 µM

SMILES: CC[C@H](C)[C@H](NC(=O)[C@H](CC(=O)O)NC(=O)[C@H](CCCCN)NC(=O)[C@H](C)NC(=O)[C@H](C)NC(=O)CNC(=O)[C@H](CCCCN)NC(=O)[C@H](CC(C)C)NC(=O)[C@@H](NC(=O)[C@H](CC(=O)O)NC(=O)[C@@H](NC(=O)[C@@H](NC(=O)CN)C(C)C)C(C)C)[C@@H](C)CC)C(=O)N[C@@H](C)C(=O)NCC(=O)N[C@@H](Cc1cnc[nH]1)C(=O)N[C@@H](C)C(=O)N[C@@H](CO)C(=O)N[C@@H](CCCCN)C(=O)N[C@H](C(=O)N[C@@H](CCSC)C(=O)N[C@@H](CC(N)=O)C(=O)N[C@@H](CCCCN)C(=O)N[C@@H](CC(C)C)C(N)=O)C(C)C [GVVDILKGAAKDIAGHASKVMNKL]
- MIC [1]: > 100 µM
- MIC [2]: > 100 µM
- MIC [3]: ≥ 100 µM
- MIC [4]: ≥ 100 µM
- MIC [5]: > 100 µM
- MIC [6]: > 100 µM

SMILES: CC[C@H](C)[C@H](N)C(=O)N[C@@H](CC(C)C)C(=O)N[C@H](C(=O)N[C@@H](CCCN=C(N)N)C(=O)N[C@@H](Cc1c[nH]c2ccccc12)C(=O)N[C@H](C(=O)N[C@@H](CCCN=C(N)N)C(=O)N[C@@H](Cc1c[nH]c2ccccc12)C(=O)N[C@@H](CCCN=C(N)N)C(=O)N[C@H](C(=O)N[C@@H](CCC(N)=O)C(=O)N[C@@H](Cc1c[nH]c2ccccc12)C(N)=O)[C@@H](C)CC)[C@@H](C)CC)C(C)C [ILVRWIRWRIQW]
- MIC [10]: 2 µM and 4 µM

SMILES: CC(C)C[C@H](NC(=O)[C@H](CC(C)C)NC(=O)[C@H](CCCCN)NC(=O)[C@H](CC(C)C)NC(=O)[C@H](CC(C)C)NC(=O)[C@H](CC(C)C)NC(=O)[C@@H](N)CCCCN)C(N)=O [KLLLKLL]
- MIC [8]: ≥ 100 µM

SMILES: CC[C@H](C)[C@H](N)C(=O)N[C@@H](CC(C)C)C(=O)NCC(=O)N[C@@H](CCCCN)C(=O)N[C@@H](C)C(=O)N[C@@H](Cc1c[nH]c2ccccc12)C(=O)N[C@@H](CCC(=O)O)C(=O)NCC(=O)N[C@@H](C)C(=O)N[C@@H](CCCCN)C(=O)N[C@@H](CO)C(=O)N[C@@H](CC(C)C)C(=O)N[C@@H](Cc1ccccc1)C(N)=O [ILGKAWEGAKSLF]
- MIC [11]: ≥ 70.4 µM
- MIC [12]: ≥ 70.4 µM
- MIC [5]: > 70.4 µM
- MIC [13]: > 70.4 µM
- MIC [6]: > 70.4 µM

SMILES: CC[C@H](C)[C@H](NC(=O)[C@H](CC(=O)O)NC(=O)[C@H](CCCCN)NC(=O)[C@H](C)NC(=O)[C@H](C)NC(=O)CNC(=O)[C@H](CCCCN)NC(=O)[C@H](CC(C)C)NC(=O)[C@@H](NC(=O)[C@H](CC(=O)O)NC(=O)[C@@H](NC(=O)[C@@H](NC(=O)CN)C(C)C)C(C)C)[C@@H](C)CC)C(=O)N[C@@H](C)C(=O)NCC(=O)N[C@@H](Cc1cnc[nH]1)C(=O)N[C@@H](CC(C)C)C(=O)N[C@@H](C)C(=O)N[C@@H](CO)C(=O)N[C@@H](CCCCN)C(=O)N[C@@H](C)C(=O)N[C@@H](CCSC)C(=O)N[C@@H](CC(N)=O)C(=O)N[C@@H](CCCCN)C(=O)N[C@@H](CC(C)C)C(N)=O [GVVDILKGAAKDIAGHLASKAMNKL]
- MIC [1]: > 100 µM
- MIC [2]: > 100 µM
- MIC [3]: ≥ 100 µM
- MIC [4]: ≥ 100 µM
- MIC [5]: > 100 µM
- MIC [6]: > 100 µM
